The source of these data is patent publication US8158806B2, “DAT1” (Department of Biotechnology, priority 2004, dated 2012).

Where two headings read alike, the source gives them in different places.

The test system of one data set is IMR 90 (lung epithelial). As to the kind of experiment: Cell survival in normal immortalized cell line. The format is cell-based. Conditions: concentration much more than the IC50 values in the cancer cell lines; data not shown. The source says: The cell survival in fee normal immortalized cell line IMR 90 (lung epithelial) was good after fee treatment of DAT1 in a concentration which was much more than the IC50 values in all fee cancer cell lines tested. In comparison, fee cell survival was less upon vinblastine treatment and similar upon paclitaxel treatment in similar concentrations (data not shown).

Another data set deals with SW 620. Briefly: MTT cell viability assay, SW 620. The format is cell-based. Conditions: SW 620 (Human colon), 48 hours, average of three experiments, read-out: IC50 values (growth inhibition constants). The procedure:
(§1) The compound DAT1 was tested for its cytotoxicity on human cervical, uterus and colon cancer cell lines and mouse fibrocercoma cells. Cell lines were obtained from ATCC, USA and NCCS, Pune, India. MTT assay, which correlates a fomazan dye formation wife the number of viable cells, was used for this purpose.
(§2) • 3. Cell Viability Assay: MTT assay was used to determine fee number of viable cells upon drug addition. Cells were seeded in microtitre plates (generally 5×10^3 cells per well) and were incubated with different concentrations of the cytotoxic agents for 48 h. Subsequently, 100 μl of MTT solution (0.6 mg/ml) was added per well and incubated at 37° C. for additional 2 h. The amount of formazan salt was quantified in quadruplicates by recording fee absorbance at 570 ran using a Biorad Plate reader. The growth inhibition constants (IC50) were calculated from the semi logarithmic dose response plots using fee nonlinear regression program Origin. All the experiments were done for at least three times. • 4. Microtubule and Tubulin Preparation: Microtubular protein was prepared from goat brains by two cycles of temperature dependent assembly-disassembly process in PEM buffer (100 mM PIPES, pH 6.9, 1 mM MgCl2 & 1 mM EGTA ) with 1 mM GTP at 37° C. For fee polymerization experiments, it was followed by one more cycle in PEM. Tubulin was purified from 2X MTP using glutamate buffer for assembly. • 5. Polymerization assay: MTP polymerization, in fee presence or absence of DAT1, was measured by the time course of fee turbidity at 37° at 345 nm. A Shimadzu UV-1601 double beam spectrophotometer fitted with a temperature-controlled circulating water bath was used for this purpose. • 6. […] Tubulin binding: Emission spectra of DAT1 in presence of tubulin were recorded from 400 nm to 600 nm using an excitation wavelength of 374 nm. Excitation and emission bandpasses are 2.5 nm each and the fluorescence values recorded are uncorrected. All fluorescence measurements were performed in a Perkin-Elmer model LS50B Luminescence spectrometer.

The subject of another data set is CaSki. Briefly: MTT cell viability assay, CaSki. The data set is classed as cell-based. As to conditions: Ca-Ski, CaSki (Human cervix), 48 hours, average of three experiments, read-out: IC50 values (growth inhibition constants). The procedure:
as §1
(§3) • 3. Cell Viability Assay: MTT assay was used to determine fee number of viable cells upon drug addition. Cells were seeded in microtitre plates (generally 5×10^3 cells per well) and were incubated with different concentrations of the cytotoxic agents for 48 h. Subsequently, 100 μl of MTT solution (0.6 mg/ml) was added per well and incubated at 37° C. for additional 2 h. The amount of formazan salt was quantified in quadruplicates by recording fee absorbance at 570 ran using a Biorad Plate reader. The growth inhibition constants (IC50) were calculated from the semi logarithmic dose response plots using fee nonlinear regression program Origin. […] Polymerization assay: MTP polymerization, in fee presence or absence of DAT1, was measured by the time course of fee turbidity at 37° at 345 nm. […] Tubulin binding: Emission spectra of DAT1 in presence of tubulin were recorded from 400 nm to 600 nm using an excitation wavelength of 374 nm. Excitation and emission bandpasses are 2.5 nm each and the fluorescence values recorded are uncorrected. […]

The next data set deals with HCT 116. As to the kind of experiment: MTT cell viability assay, HCT 116. The data set is classed as cell-based. As to conditions: HCT 116 (Human colon), 48 hours, average of three experiments, read-out: IC50 values (growth inhibition constants). The procedure: as §1, §2
A further data set relates to L-929. As to the kind of experiment: MTT cell viability assay, L-929. Conditions: L929, L-929 (Mouse connective tissue), 48 hours, average of three experiments, read-out: IC50 values (growth inhibition constants). The format is cell-based. The procedure:
as §1, §3

In the next data set the test system is HeLa. Briefly: MTT cell viability assay, HeLa. The data set is classed as cell-based. As to conditions: HeLa (Human cervix), 48 hours, average of three experiments, read-out: IC50 values (growth inhibition constants). The procedure:
as §1, §2

The subject of a further data set is MES-SA/Dx5. Briefly: MTT cell viability assay, multidrug resistant MES-SA/Dx5. The data set is classed as cell-based, Human. As to conditions: for IC50: MES-SA/Dx5 (Human uterus), multidrug resistant, 48 hours, MTT, average of three experiments, read-out: IC50 values (growth inhibition constants). The procedure: as §1
• 3. Cell Viability Assay: MTT assay was used to determine fee number of viable cells upon drug addition. Cells were seeded in microtitre plates (generally 5×10^3 cells per well) and were incubated with different concentrations of the cytotoxic agents for 48 h. Subsequently, 100 μl of MTT solution (0.6 mg/ml) was added per well and incubated at 37° C. for additional 2 h. The amount of formazan salt was quantified in quadruplicates by recording fee absorbance at 570 ran using a Biorad Plate reader. The growth inhibition constants (IC50) were calculated from the semi logarithmic dose response plots using fee nonlinear regression program Origin. All the experiments were done for at least three times. • 4. Microtubule and Tubulin Preparation: Microtubular protein was prepared from goat brains by two cycles of temperature dependent assembly-disassembly process in PEM buffer (100 mM PIPES, pH 6.9, 1 mM MgCl2 & 1 mM EGTA ) with 1 mM GTP at 37° C. For fee polymerization experiments, it was followed by one more cycle in PEM. Tubulin was purified from 2X MTP using glutamate buffer for assembly. • 5. Polymerization assay: MTP polymerization, in fee presence or absence of DAT1, was measured by the time course of fee turbidity at 37° at 345 nm. A Shimadzu UV-1601 double beam spectrophotometer fitted with a temperature-controlled circulating water bath was used for this purpose. • 6. Immunofluorescence assay: HeLa cells were incubated with the drug for 24 h at 37° C., washed with PBS and fixed with 4% paraformaldehyde at 4° C. Subsequently, they were washed and permeabilized with 0.2% Triton X-100 in PBS for 20 min at 37° C. […] Tubulin binding: Emission spectra of DAT1 in presence of tubulin were recorded from 400 nm to 600 nm using an excitation wavelength of 374 nm. Excitation and emission bandpasses are 2.5 nm each and the fluorescence values recorded are uncorrected. All fluorescence measurements were performed in a Perkin-Elmer model LS50B Luminescence spectrometer.

The subject of the next data set is SiHa. Briefly: MTT cell viability assay, SiHa. The format is cell-based. Conditions: SiHa (Human cervix), 48 hours, average of three experiments, read-out: IC50 values (growth inhibition constants). The procedure: as §1, §3
In data set [1] the test system is human cervical, uterus and colon cancer cell lines and mouse fibrocercoma cells. Briefly: MTT cytotoxicity, panel of cancer cell lines (summary). As to conditions: read-out: IC50 values, range. The format is cell-based. The procedure:
as §1, §3

[2] abbreviates: multidrug resistant cell line MES-SA/DX5.

Take `COc1ccc(Nc2nc(N)c(C(=O)c3ccccc3)s2)cc1` [DAT1, Diaminoketothiazole]: the “cell survival after treatment” value with IMR 90 (lung epithelial) is given as “good”. Moreover, the IC50 stood at 200 nM in the data set on SW 620; 200 nM with CaSki; 300 nM with HCT 116; 1000 nM with L-929; 54 nM in the data set on HeLa; 350 nM with MES-SA/Dx5. The values for the IC50 (in the data set with SiHa; in data set [1] (in 2 cell lines); in data set [1] (in 5 out of the 9 cell lines tested)) were 5000 nM, 1000 to 5000 nM and 50 to 300 nM, respectively. Further, in the data set on MES-SA/Dx5 (setting [2]), the “times more active than paclitaxel” value turned out to be 15 times. Also, in the data set with MES-SA/Dx5 (setting [2]), the “times more active than vinblastine” value is 2 times.
For the compound `CC(=O)O[C@H]1C(=O)[C@@]2(C)[C@H]([C@H](OC(=O)c3ccccc3)[C@]3(O)C[C@H](OC(=O)[C@H](O)[C@@H](NC(=O)c4ccccc4)c4ccccc4)C(C)=C1C3(C)C)[C@]1(OC(C)=O)CO[C@@H]1C[C@@H]2O` [Paclitaxel], the “cell survival after treatment” value with IMR 90 (lung epithelial) is on record as “similar”. Further, the IC50 with SW 620 was found to be 7 nM; in the data set on CaSki, 20 nM; in the data set with HCT 116, 12 nM; in the data set on L-929, 300 nM; with HeLa, 34 nM; with MES-SA/Dx5, 8600 nM. The IC50 with SiHa came out at 1100 nM.
For the compound `CC[C@]1(O)C[C@@H]2CN(CCc3c([nH]c4ccccc34)[C@@](C(=O)OC)(c3cc4c(cc3OC)N(C)[C@H]3[C@@](O)(C(=O)OC)[C@H](OC(C)=O)[C@]5(CC)C=CCN6CC[C@]43[C@@H]65)C2)C1` [Vinblastine], the “cell survival after treatment” value with IMR 90 (lung epithelial) was “less”. Further, the IC50 with SW 620 worked out at 200 nM; with HCT 116, 5 nM; in the data set on HeLa, 1 nM; with MES-SA/Dx5 it was 730 nM.
